This passage reports IC50 results from US20260159500A1, “KINESIN KIF18A INHIBITOR AND USE THEREOF” (SHANGHAI APEIRON THERAPEUTICS COMPANY LIMITED, priority 2022, published 2026).

One assay concerns OVCAR3 cells. Description: Cell proliferation activity test in OVCAR3 cells (CyQUANT Direct). The assay is classed as cell-based. The conditions noted are these: 3 days incubation, CyQUANT fluorescence detection, read-out: OVCAR-3_IC50_nM. As for the experimental part:
OVCAR3 cells were purchased from Nanjing Cobioer Biosciences Co., Ltd. RPMI-1640 medium, fetal bovine serum, and the CyQUANT Direct Cell Proliferation Assay kit were purchased from Thermo Fisher Scientific, USA; 96-well cell culture plates were sourced from Corning, USA.
Culture OVCAR3 cells with RPMI-1640 medium containing 10% fetal bovine serum and incubate them in a 5% CO2 incubator at 37° C. Only cells in the logarithmic growth phase can be used for the test.
Inoculate OVCAR3 cells into a 96-well cell culture plate at 90 μL per well and incubate overnight in a 5% CO2 incubator at 37° C. Dissolve the compound powder in DMSO to prepare a stock solution of 10 mM. Then perform gradient dilution for the compounds in the microplate to achieve a final concentration of 0-10 μM. Add 10 μL of cell culture medium containing compounds to each well to make the final DMSO content 0.2%. Incubate the cell plates in a 5% CO2 incubator at 37° C. for 3 days. Add 100 μL of CyQUANT detection reagent to each well, react at 37° C. for 60 min, and perform fluorescence detection using the PerkinElmer Envision.

Assay [1] deals with T1, Human KIF18A (amino acid sequence 1-417) (Homo sapiens, UniProt Q8NI77).
T1 construct: purchased Viva Biotech (Shanghai) Ltd
T1 sequence (Q8NI77 1-417): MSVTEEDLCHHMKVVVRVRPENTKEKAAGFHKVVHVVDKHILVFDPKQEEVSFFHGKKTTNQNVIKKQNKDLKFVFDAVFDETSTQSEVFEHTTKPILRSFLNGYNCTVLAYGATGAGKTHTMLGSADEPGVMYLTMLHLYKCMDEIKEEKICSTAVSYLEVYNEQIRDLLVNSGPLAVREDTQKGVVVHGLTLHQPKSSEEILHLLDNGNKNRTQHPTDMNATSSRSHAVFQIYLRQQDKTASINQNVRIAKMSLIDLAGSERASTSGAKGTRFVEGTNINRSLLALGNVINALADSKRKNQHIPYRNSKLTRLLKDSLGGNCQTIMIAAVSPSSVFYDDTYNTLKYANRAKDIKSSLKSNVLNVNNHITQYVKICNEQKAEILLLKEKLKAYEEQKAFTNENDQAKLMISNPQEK
Description: Enzymatic activity test (ADP-Glo, microtubule-stimulated KIF18A ATPase). The assay is classed as biochemical. The conditions noted are these: 60 μg/mL microtubules, 25 μM ATP, 2.5 nM KIF18A protein, 120 min at ambient temperature, read-out: KIF18A_nM. As for the experimental part: Human KIF18A (amino acid sequence 1-417) was purchased from Viva Biotech (Shanghai) Ltd.; the ADP-Glo™ protein kinase kit was acquired from Promega, USA; tubulin was sourced from Cytoskeleton, USA; and the 384-well assay plate and Envision multifunctional microplate reader were obtained from PerkinElmer, USA.
Dissolve the compound powder in DMSO to prepare a stock solution of 10 mM. Then perform gradient dilution for the compounds in the microplate to achieve a final concentration of 0-10 μM. Then, add 2.5 μL each of tubulin, compound, ATP, and KIF18A protein to the microplate in sequence for reaction at ambient temperature for 120 min. The final concentrations in the enzyme reaction are 60 μg/mL for microtubules, 25 μM for ATP, and 2.5 nM for KIF18A protein. After the enzyme reaction, add 10 μL of ADP-GLO reaction reagent to each well and incubate at ambient temperature for 30 min. After that, add 20 μL of detection reagent to each well and incubate at ambient temperature for 30 min in the dark. Finally, perform chemiluminescence detection using the PerkinElmer Envision.
(In ADP-Glo the light output rises with the ADP produced.)

Read-outs that look alike come from different tables or passages of the source.

As to `O=C(Nc1nc(N2CCC(F)(F)CC2)nc2c1CCC2)c1ccc(NS(=O)(=O)CCO)cc1N1CCC2(CC1)CC2` [Example 1], the IC50 was 1030 nM with OVCAR3 cells (Homo sapiens, OVCAR-3, 72 h) and 190 nM in assay [1].

Regarding `O=C(Nc1nc(N2CCC(F)(F)CC2)nc2c1COC2)c1ccc(NS(=O)(=O)CCO)cc1N1CCC2(CC1)CC2` [Example 2, N-(2-(4,4-difluoropiperidin-1-yl)-5,7-dihydrofuro[3,4-d]pyrimidin-4-yl)-4-((2-hydroxyethyl)sulfonamide)-2-(6-azaspiro[2.5]octan-6-yl)benzamide], the IC50 in the assay with OVCAR3 cells (Homo sapiens, OVCAR-3, 72 h) is 899 nM; in assay [1], 251 nM.

`O=C(Nc1nc2c(c(N3CCC(F)(F)CC3)n1)CCC2)c1ccc(NS(=O)(=O)CCO)cc1N1CCC2(CC1)CC2` [Example 3, N-(4-(4,4-difluoropiperidin-1-yl)-6,7-dihydro-5H-cyclopenta[d]pyrimidin-2-yl)-4-((2-hydroxyethyl)sulfonamide)-2-(6-azaspiro[2.5]oct-6-yl)benzamide]: the IC50 with OVCAR3 cells (Homo sapiens, OVCAR-3, 72 h) came to 566 nM; in assay [1] it was 68 nM.

Turning to `CC(C)(C)OC(=O)N1Cc2nc(NC(=O)c3ccc(NS(=O)(=O)CCO)cc3N3CCC4(CC3)CC4)nc(N3CCC(F)(F)CC3)c2C1` [Example 6, Tert-butyl 4-(4,4-difluoropiperidin-1-yl)-2-(4-(2-hydroxyethylsulfonamido)-2-(6-azaspiro[2.5]octan-6-yl)benzoylamino)-5H-pyrrolo[3,4-d]pyrimidine-6 (7H)-carboxylate], the IC50 with OVCAR3 cells (Homo sapiens, OVCAR-3, 72 h) came out at 1480 nM; in assay [1] it was 241 nM.

As to `O=C(Nc1cc2nccn2c(N2CCC(F)(F)CC2)n1)c1ccc(NS(=O)(=O)CCO)cc1N1CCC2(CC1)CC2` [Example 21, N-(5-(4,4-difluoropiperidin-1-yl)imidazolo[1,2-c]pyrimidin-7-yl)-4-((2-hydroxyethyl)sulfonamide)-2-(6-azaspiro[2.5]octan-6-yl)benzamide], in the assay with OVCAR3 cells (Homo sapiens, OVCAR-3, 72 h), the IC50 worked out at 358 nM.

In the case of `O=C(Nc1nc(N2CCC(F)(F)CC2)cc2nccn12)c1ccc(NS(=O)(=O)CCO)cc1N1CCC2(CC1)CC2` [Example 22], the IC50 in assay [1] turned out to be 1940 nM.

For `O=C(Nc1nc(N2CCC(F)(F)CC2)c2occc2c1Cl)c1ccc(NS(=O)(=O)CCO)cc1N1CCC2(CC1)CC2` [Example 33, N-(4-chloro-7-(4,4-difluoropiperidin-1-yl)furo[2,3-c]pyridin-5-yl)-4-(2-hydroxyethylsulfonamido)-2-(6-azaspiro[2.5]octan-6-yl)benzamide], the IC50 in assay [1] was found to be 1640 nM.

As to `O=C(Nc1cc2cccnc2c(C2CCN(CC(F)(F)F)CC2)n1)c1ccc(NS(=O)(=O)CCO)cc1N1CCC2(CC1)CC2` [Example 50, 4-(2-hydroxyethylsulfonamido)-2-(6-azaspiro[2.5]octan-6-yl)-N-(8-(1-(2,2,2-trifluoroethyl)piperidin-4-yl)-1,7-naphthyridin-6-yl)benzamide], the IC50 in assay [1] was found to be 1490 nM.

As for `O=C(Nc1cc2ncccc2c(N2CCC(F)(F)CC2)n1)c1ccc(NS(=O)(=O)CCO)cc1N1CCC2(CC1)CC2` [Example 57], the IC50 in assay [1] came out at 77 nM.

For the compound `COc1ccc2cc(NC(=O)c3ccc(NS(=O)(=O)CCO)cc3N3CCC4(CC3)CC4)c(F)c(N3CCC(F)(F)CC3)c2n1` [Example 77, N-(8-(4,4-difluoropiperidin-1-yl)-7-fluoro-2-methoxyquinolin-6-yl)-4-((2-hydroxyethyl)sulfonamido)-2-(6-azaspiro[2.5]oct-6-yl)benzamide], the IC50 with OVCAR3 cells (Homo sapiens, OVCAR-3, 72 h) was 745 nM; in assay [1], 848 nM.

As to `O=C(Nc1cc(N2CCC(F)(F)CC2)c2nccnc2c1)c1ccc(NS(=O)(=O)CCO)cc1N1CCC2(CC1)CC2` [Example 83, N-(8-(4,4-difluoropiperidin-1-yl)quinoxalin-6-yl)-4-((2-hydroxyethyl)sulfonamido)-2-(6-azaspiro[2.5]octan-6-yl)benzamide], the IC50 in the assay with OVCAR3 cells (Homo sapiens, OVCAR-3, 72 h) was 15 nM; in assay [1], 27 nM.

As for `CP(C)(=O)c1cnc2c(N3CCC(F)(F)CC3)cc(NC(=O)c3ccc(NS(=O)(=O)CCO)cc3N3CCC4(CC3)CC4)cc2c1` [Example 85, N-(8-(4,4-difluoropiperidin-1-yl)-3-(dimethylphosphoryl)quinolin-6-yl)-4-(2-hydroxyethylsulfonamido)-2-(6-azaspiro[2.5]octan-6-yl)benzamide], the IC50 in assay [1] is > 3000 nM.

As for `O=C(Nc1cc(N2CCC(F)(F)CC2)c2ncccc2n1)c1ccc(NS(=O)(=O)CCO)cc1N1CCC2(CC1)CC2` [Example 92, N-(4-(4,4-difluoropiperidin-1-yl)-1,5-naphthyridin-2-yl)-4-(2-hydroxyethylsulfonamido)-2-(6-azaspiro[2.5]octan-6-yl)benzamide], in assay [1], the IC50 stood at 2260 nM.

On to `O=C(Nc1cc(N2CCC(F)(F)CC2)nc2cccnc12)c1ccc(NS(=O)(=O)CCO)cc1N1CCC2(CC1)CC2` [Example 93, N-(2-(4,4-difluoropiperidin-1-yl)-1,5-naphthyridin-4-yl)-4-(2-hydroxyethylsulfonamido)-2-(6-azaspiro[2.5]octan-6-yl)benzamide], for which the IC50 in assay [1] is > 3000 nM.

In the case of `C[C@H](CO)S(=O)(=O)Nc1ccc(C(=O)Nc2cc3sc(N)nc3c(N3CCC(F)(F)CC3)c2F)c(N2CCC3(CC2)CC3)c1` [Example 94, N-[2-amino-4-(4,4-difluoropiperidin-1-yl)-5-fluoro-1,3-benzothiazol-6-yl]-2-{6-azaspiro[2.5]octan-6-yl}-4-[(2R)-1-hydroxypropane-2-sulfonamido]benzamide], the IC50 amounted to 5.9 nM in the assay with OVCAR3 cells (Homo sapiens, OVCAR-3, 72 h) and 255 nM in assay [1].

For the compound `C[C@@H](CO)S(=O)(=O)Nc1ccc(C(=O)Nc2cc3sc(N)nc3c(N3CCC(F)(F)CC3)c2F)c(N2CCC3(CC2)CC3)c1` [Example 95, N-[2-amino-4-(4,4-difluoropiperidin-1-yl)-5-fluoro-1,3-benzothiazol-6-yl]-2-{6-azaspiro[2.5]octan-6-yl}-4-[(2S)-1-hydroxypropane-2-sulfonamido]benzamide], the IC50 was 4.7 nM in the assay with OVCAR3 cells (Homo sapiens, OVCAR-3, 72 h) and 242 nM in assay [1].

As to `CC(CO)S(=O)(=O)Nc1ccc(C(=O)Nc2cc3sc(N)nc3c(N3CCC(F)(F)CC3)c2F)c(C2=CCC3(CC2)CC3)c1` (stereo not shown) [Example 101, N-(2-amino-4-(4,4-difluoropiperidin-1-yl)-5-fluorobenzo[d]thiazol-6-yl)-4-((2-hydroxy-1-methylethyl)sulfonamido)-2-(spiro[2.5]oct-5-en-6-yl)benzamide], the IC50 in assay [1] was 139 nM.

Regarding `CC(CO)S(=O)(=O)Nc1ccc(C(=O)Nc2cc3cccnc3c(N3[C@H](C)COC[C@H]3C)n2)c(N2CCC3(CC2)CC3)c1` (stereo partly drawn) [Example 102, 2-{6-Azaspiro[2.5]octan-6-yl}-N-[8-((3R,5R)-3,5-dimethylmorpholino)-1,7-naphthyridin-6-yl]-4-[1-hydroxypropane-2-sulfonamido]benzamide], the IC50 in assay [1] is 150 nM.

For “N-(5-(4,4-difluoropiperidin-1-yl) imidazo[1,2-c]pyrimidin-7-yl)-6-((2-hydroxyethyl)sulfonamido)-4-(6-azaspiro[2.5]octan-6-yl) nicotinamide [Example 23]”, the values for the IC50 (in the assay with OVCAR3 cells; in assay [1]) were > 10000 nM and 42 nM, respectively.
